Reference: patent US20220323405A1, “COMBINATION PRODUCT USING 3,4-METHYLENEDIOXYMETHAMPHETAMINE AND […] THE TREATMENT OF […] DISORDERS” (Universitätsspital Basel, priority 2021, published 2022)
Where two headings read alike, the source gives them in different places.

Columns and labels:
healthy subjects [1] = settings: doxazosin 8 mg/d for 3 days before MDMA 125 mg; cited from earlier work
healthy human subjects = settings: MDMA 125 mg vs placebo, cited from earlier work
rats = settings: cited from earlier work
humans [2] = settings: cited from earlier work
healthy subjects [3] = settings: non-ambulating persons, 1.5-4 hours after administration vs placebo; p<0.001; cited from earlier work
healthy humans = experiment: Modeled co-administration of carvedilol with MDMA at the same time (estimates from pre-administration data); parameters: species or system human
Source text: FIGS. 11A-11C are graphs showing effects of MDMA alone, carvedilol alone, carvedilol prior to MDMA and carvedilol co-administered with MDMA at the same time (modeled data) on systolic (FIG. 11A), diastolic (FIG. 11B), and mean arterial blood pressure (FIG. 11C) in healthy humans; and
FIGS. 12A-12B are graphs showing effects of MDMA alone, carvedilol alone, carvedilol prior to MDMA and carvedilol co-administered with MDMA at the same time (modeled data) on heart rate (FIG. 12A) and body temperature (FIG. 12B) in healthy humans.
Therefore, the present invention further developed the carvedilol-pre-dosing approach into a simultaneous dosing approach. The study provided the information on the effects of carvedilol alone, and MDMA alone.
For blood pressure and heart rate the effects of carvedilol given simultaneously with MDMA were therefore estimated using the carvedilol and placebo mean values for each measured time point after administration and the mean carvedilol-placebo effect difference was calculated and then subtracted from the MDMA-placebo difference (FIGS. 11A-11C).
FIGS. 11A-11C and 12A-12B illustrate the beneficial effect of the present invention using co-administration of the adverse effect-reducing agent (carvedilol) and the empathogen/entactogen (MDMA). If carvedilol is administered before MDMA (carvedilol prior MDMA condition) as in the past study (Hysek et al., 2012a), a drop in blood pressure and heart rate can be observed in FIGS. 11A-11C and 12A-12B prior to the MDMA administration and consistent with the effect of carvedilol alone.
The graphical illustrations (FIGS. 11A-11C and 12A-12B) are based on estimates and modeling using existing data from the pre-administration of carvedilol. However, it is clear from illustrations FIGS. 11A-11C and 12A-12B that the invention provides an effective approach to reduce MDMA-induced cardiostimulant effects.

humans [4] = settings: carvedilol 50 mg; cited from earlier work
healthy subjects [5] = settings: cited from earlier work
[6] = humans, after MDMA vs after pindolol-MDMA
[7] = carvedilol 50 mg 1 hour before MDMA 125 mg
[8] = carvedilol 50 mg 1 hour before MDMA 125 mg, listed as Carvedilol

For `COc1cc2nc(N3CCN(C(=O)C4COc5ccccc5O4)CC3)nc(N)c2cc1OC` (stereo not shown) [Doxazosin, doxazosin], the “Effect on MDMA-induced elevations in blood pressure” value (shortened to “Effect … in blood pressure”) (healthy subjects [1]) is given as “reduced” and the “Effect on MDMA-induced elevations in body temperature” value (healthy subjects [1]) is given as “reduced”.
For `CNC(C)Cc1ccc2c(c1)OCO2` (stereo not shown) [MDMA, 3,4-methylenedioxymethamphetamine], the “Diastolic and systolic blood pressure” value (healthy human subjects) is listed as “significantly increased”, the Heart rate (healthy human subjects) is listed as “significantly increased” and the Pupil size (healthy human subjects) is listed as “significantly increased”. The Rate pressure product (healthy human subjects) was “significantly increased”, the Body temperature (healthy human subjects; tympanic) was “significantly increased” and the Norepinephrine levels (rats) was “induced”. The “Peak mean arterial blood pressure (MAP) values” (humans [2]; [6]) was 115±11 mm Hg, the “Peak values (mean±SD) for heart rate” value (humans [2]; [6]) was 84±13 beats/minute and the Body temperature (healthy subjects [3]) was “elevated”. The “Body temperature (FIG. 12B)” value (healthy humans; MDMA alone) was “slightly increases”.
In the case of `COc1ccccc1OCCNCC(O)COc1cccc2[nH]c3ccccc3c12` (stereo not shown) [carvedilol], the “Effect on established MDMA-induced hyperthermia” value (rats; administered 1 hour after MDMA) is given as “completely reversed”, the “Effect on MDMA-induced hyperthermic (thermogenic) response” value (rats; administered before or after MDMA) is given as “prevented” and the “Effect on smoked cocaine-induced increases in heart rate and blood pressure” value (humans [4]) is given as “attenuate”. The “Effect on MDMA-induced increase in body temperature (FIG. 12B)” value (healthy humans; carvedilol administered prior to MDMA and with MDMA, modeled data) was “reduce”, the “Effect on MDMA-induced increase in heart rate and blood pressure” value (healthy humans; carvedilol with MDMA at the same time, modeled data) was “reduce the MDMA effect effectively and similarly” and the “Effect … in blood pressure” value (healthy subjects [5]; [7]) was “effectively reduced”. The “Effect on MDMA-induced elevations in body temperature” value (healthy subjects [5]; [7]) was “reduced”, the “Effect on MDMA-induced elevations in heart rate” value (healthy subjects [5]; [7]) was “effectively reduced” and the “Effect on plasma exposure to MDMA” value (healthy subjects [5]; [7]) was “did not alter”. For the same compound, the “Effect on subjective effects of MDMA (good drug effects, drug liking)” value (healthy subjects [5]; [7]) was “did not alter”, the “Effect … in blood pressure” value (healthy subjects [5]; [8]) was “reduced” and the “Effect on MDMA-induced elevations in heart rate” value (healthy subjects [5]; [8]) was “reduced”. The “Effect on subjective effects of MDMA (good drug effects, drug liking)” value (healthy subjects [5]; [8]) was “did not affect” and the “Blood pressure and heart rate prior to the MDMA administration” value (healthy subjects [5]; carvedilol prior MDMA condition) was “drop”.
For `CC(C)NCC(O)COc1cccc2[nH]ccc12` (stereo not shown) [pindolol], the “Effect on MDMA-induced increase in body temperature” value (humans [2]; pindolol pretreatment) is listed as “no effect” and the “Effect on adverse effects of MDMA” value (humans [2]; pindolol pretreatment) is listed as “did not change”.
